Source: the NIST ThermoML archive (doi:10.1016/j.jct.2012.08.021)

Experiment: xn = mol fraction of the nth substance listed
Conditions: 101 kPa, Liquid, Vibrating tube method

NCCO [2-aminoethan-1-ol] + C[S+](C)[O-]
Conditions	mass density [kg/m3]
293.15 K, x1 = 0.1002	1092.35
293.15 K, x1 = 0.2	1084.23
293.15 K, x1 = 0.2999	1076.52
293.15 K, x1 = 0.4002	1068.58
293.15 K, x1 = 0.5002	1060.65
293.15 K, x1 = 0.5999	1052.61
293.15 K, x1 = 0.7002	1044.32
293.15 K, x1 = 0.8001	1035.24
293.15 K, x1 = 0.8998	1026.1
293.16 K, x1 = 1	1016.34
303.14 K, x1 = 0.2999	1066.93
303.14 K, x1 = 1	1008.4
303.15 K, x1 = 0.1002	1082.48
303.15 K, x1 = 0.4002	1059.15
303.15 K, x1 = 0.5002	1051.41
303.15 K, x1 = 0.5999	1043.58
303.15 K, x1 = 0.7002	1035.51
303.15 K, x1 = 0.8001	1026.69
303.15 K, x1 = 0.8998	1017.83
303.16 K, x1 = 0.2	1074.46
313.14 K, x1 = 0.1002	1072.61
313.14 K, x1 = 0.2999	1057.33
313.14 K, x1 = 1	1000.41
313.15 K, x1 = 0.2	1064.73
313.15 K, x1 = 0.4002	1049.71
313.15 K, x1 = 0.5002	1042.15
313.15 K, x1 = 0.5999	1034.52
313.15 K, x1 = 0.7002	1026.7
313.15 K, x1 = 0.8001	1018.12
313.15 K, x1 = 0.8998	1009.56
323.14 K, x1 = 0.1002	1062.74
323.15 K, x1 = 0.2999	1047.72
323.15 K, x1 = 0.4002	1040.26
323.15 K, x1 = 0.5002	1032.85
323.15 K, x1 = 0.5999	1025.42
323.15 K, x1 = 0.7002	1017.83
323.15 K, x1 = 0.8001	1009.5
323.15 K, x1 = 0.8998	1001.23
323.15 K, x1 = 1	992.384
323.16 K, x1 = 0.2	1054.96
333.14 K, x1 = 0.2999	1038.11
333.14 K, x1 = 1	984.302
333.15 K, x1 = 0.1002	1052.86
333.15 K, x1 = 0.4002	1030.78
333.15 K, x1 = 0.5002	1023.56
333.15 K, x1 = 0.7002	1008.93
333.15 K, x1 = 0.8001	1000.84
333.15 K, x1 = 0.8998	992.847
333.16 K, x1 = 0.2	1045.22
333.16 K, x1 = 0.5999	1016.3
343.14 K, x1 = 1	976.141
343.15 K, x1 = 0.1002	1042.97
343.15 K, x1 = 0.2	1035.46
343.15 K, x1 = 0.2999	1028.47
343.15 K, x1 = 0.4002	1021.28
343.15 K, x1 = 0.5002	1014.22
343.15 K, x1 = 0.5999	1007.15
343.15 K, x1 = 0.7002	999.999
343.15 K, x1 = 0.8001	992.114
343.15 K, x1 = 0.8998	984.393
353.14 K, x1 = 0.1002	1033.05
353.14 K, x1 = 0.2999	1018.81
353.14 K, x1 = 0.4002	1011.75
353.14 K, x1 = 0.5002	1004.84
353.14 K, x1 = 0.7002	990.992
353.14 K, x1 = 0.8001	983.32
353.14 K, x1 = 0.8998	975.863
353.14 K, x1 = 1	967.893
353.15 K, x1 = 0.2	1025.66
353.15 K, x1 = 0.5999	997.944
363.14 K, x1 = 0.1002	1023.1
363.14 K, x1 = 0.2	1015.84
363.14 K, x1 = 0.5002	995.408
363.14 K, x1 = 0.5999	988.672
363.14 K, x1 = 0.7002	981.91
363.14 K, x1 = 0.8001	974.446
363.14 K, x1 = 0.8998	967.234
363.15 K, x1 = 0.2999	1009.1
363.15 K, x1 = 0.4002	1002.17
363.15 K, x1 = 1	959.536
